# Values quoted from earlier work in US12290493B2 (Advanced Respiratory Technologies, Inc., priority 2017, dated 2025).
# What was measured:
# [1] = test system: beta adrenergic receptors
# [2] = fraction of the l-epinephrine effect
Compound,beta adrenergic activity [1],pressor effect relative to that of l-epinephrine [2]
CNCC(=O)c1ccc(O)c(O)c1 [adrenalone],little if any beta adrenergic activity,
CNC[C@H](O)c1ccc(O)c(O)c1 [d-epinephrine],,about one-fifteenth
